Consider three molecules from article PMC5701060, “Inhibition of the inflammatory response to stress by targeting interaction between PKR and its cellular activator PACT” (Scientific Reports, 2017).

The target of this assay is T1, PKR/PACT (GST-PKR-Nter / His-PACT) (Homo sapiens, UniProt O75569+P19525).
T1 construct: gene EIF2AK2; PKR 1-265 (both DRBDs, no kinase domain) with N-terminal GST; full-length PACT with N-terminal His tag; E. coli
T1 sequence (P19525 1-265): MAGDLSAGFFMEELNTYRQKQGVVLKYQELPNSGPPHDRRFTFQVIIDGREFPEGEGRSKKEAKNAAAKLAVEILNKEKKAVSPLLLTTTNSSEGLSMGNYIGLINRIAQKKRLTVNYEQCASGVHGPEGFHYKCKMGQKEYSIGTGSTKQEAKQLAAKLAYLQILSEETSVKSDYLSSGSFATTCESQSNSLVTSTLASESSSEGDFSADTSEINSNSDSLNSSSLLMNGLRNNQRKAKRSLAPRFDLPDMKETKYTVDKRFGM
T1 sequence (O75569 whole entry, the tested form may be a part): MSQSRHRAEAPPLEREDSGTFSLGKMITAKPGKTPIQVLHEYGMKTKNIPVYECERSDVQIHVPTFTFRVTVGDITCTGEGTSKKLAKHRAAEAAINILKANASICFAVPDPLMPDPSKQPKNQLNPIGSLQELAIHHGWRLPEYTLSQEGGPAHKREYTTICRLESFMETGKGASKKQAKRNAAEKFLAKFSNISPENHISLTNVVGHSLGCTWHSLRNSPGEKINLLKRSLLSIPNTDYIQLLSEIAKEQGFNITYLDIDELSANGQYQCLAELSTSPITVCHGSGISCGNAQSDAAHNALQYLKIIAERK
In words: HTRF protein-protein interaction assay. The format is binding. A general note: In TR-FRET formats the signal depends on donor and acceptor labels being close together.
What is called IC50 is the concentration at which inhibition is half-maximal. Lower therefore signals greater potency in that assay. `O=c1c(O)c(-c2cc(O)c(O)c(O)c2)oc2cc(O)cc(O)c12` [myricetin] gave a 50% inhibitory concentration (IC50) of 600 nM.
Molecule `O=c1cc(-c2ccc(O)c(O)c2)oc2cc(O)cc(O)c12` [luteolin] showed an IC50 of 50000 nM.
The molecule `O=c1c(O)c(-c2ccc(O)c(O)c2)oc2cc(O)cc(O)c12` [quercetin] gave an IC50 of 2000 nM.
